According to patent US10160785B2, “Antimicrobial peptides and their use for the treatment of topical infections” (priority 2015, dated 2018):

Experiments:
[1] = tested on: Pseudomonas aeruginosa Liberec; settings: for Antimicrobial activity MIC P. a. Liberec: Pseudomonas aeruginosa Liberec, 37° C., 20 h
Method: (§1) Gram-positive bacteria (Micrococcus luteus, Bacillus subtilis, Staphylococcus aureus, Staphylococcus epidermidis and Enterococcus faecalis), Gram-negative bacteria (Escherichia coli and Pseudomonas aeruginosa) and the yeast (Candida albicans) were grown to exponential phase and then were diluted with fresh medium. BHI medium (Oxoid, Great Britain) was used for Enterococcus faecalis; YPD medium containing yeast extract peptone and glucose was used for Candida albicans and LB medium (Sigma, Czech Republic) was used for the remaining microorganisms. Then the microorganisms were added to the solutions of the tested antimicrobial peptides in LB medium in multi-well plates. The final peptide concentration it the wells was in the range of 0.1 to 100 μmol.l^−1. That was made by twofold serial dilution from the peptide stock solution (1 mmol.l^−1). The plates were incubated at 37° C. for 20 h while being continuously shaken in a Bioscreen C (Oy Growth Curves AB Ltd., Helsinki, Finland). Absorbance was measured at 540 nm every 15 min. Antimicrobial activity (Table 2) was determined as a quantitative minimum inhibitory concentration (MIC) by observing bacterial growth in the presence of different concentrations of tested peptides. In the experiments ca 10^5 CFU of bacteria or candida per well were routinely used.
(§2) Multiresistant clinical isolates of bacteria were obtained from University Hospital in Motol, Prague, Czech Republic and from Liberec Regional Hospital, Czech Republic. Methicillin resistant Staphylococcus aureus (MRSA) 6271 and Pseudomonas aeruginosa 5482 were from the Czech National Collection of Type Cultures, the National Institute of Public Health, Prague, Czech Republic. Other bacteria were from the Czech Collection of Microorganisms, Brno, Czech Republic. Candida albicans came from the Faculty of Medicine, Palacky University, Olomouc, Czech Republic.

[2] = tested on: Staphylococcus aureus Liberec; settings: for Antimicrobial activity MIC S. a. Liberec: Staphylococcus aureus Liberec clinical isolate, 37° C., 20 h
Method: as §1, §2

Candida albicans Olomouc = settings: for Antimicrobial activity MIC C. a. Olomouc: Candida albicans Olomouc, YPD medium, 37° C., 20 h (Example 2)
Method: as §1, §2

Micrococcus luteus = settings: for Antimicrobial activity MIC M. l.: Micrococcus luteus, 37° C., 20 h
Method: as §1, §2

Bacillus subtilis = settings: for Antimicrobial activity MIC B. s.: Bacillus subtilis, 37° C., 20 h
Method: as §1, §2

in vitro = settings: human
In short: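 Peptides at 2-200 μmol.l^−1 incubated 1 h at 37 °C with 5% v/v human erythrocyte suspension in physiological solution. Released haemoglobin in supernatant read at 540 nm against buffer (0%) and 0.2% Triton X100 (100%) lysis controls. LC50 is the peptide concentration lysing 50% of cells.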

[3] = tested on: Staphylococcus epidermidis Motol; settings: 37° C., 20 h
Method: as §1, §2

[4] = tested on: Methicillin resistant Staphylococcus aureus (MRSA) 6271; settings: 37° C., 20 h
Method: as §1, §2

[5] = tested on: Pseudomonas aeruginosa 5482; settings: 37° C., 20 h
Method: as §1, §2

[6] = tested on: Enterococcus faecalis Motol; settings: BHI medium, 37° C., 20 h
Method: as §1, §2

[7] = tested on: Staphylococcus aureus Motol; settings: Staphylococcus aureus Motol clinical isolate; 37° C., 20 h
Method: as §1, §2

Escherichia coli = settings: 37° C., 20 h
Method: as §1, §2

P. aeruginosa (Liberec) = test: Synergistic effect of peptides with antibiotics, FIC index; type: cell-based, Pseudomonas aeruginosa; settings: FIC <0.5 synergism, 0.5-2 additive, >2 antagonism, averages of three experiments; for FIC indexes (fractional inhibitory concentration) Combination with RIF against P. aeruginosa: peptide combined with rifampicin; for FIC indexes (fractional inhibitory concentration) Combination with TET against P. aeruginosa: peptide combined with tetracycline
Method: MICs values of various combinations of two fold serial dilutions of peptides and antibiotics were determined using the same methodology as in the case of antimicrobial activity determination (Example 2). To consider the type of the final effect, FIC indexes (fractional inhibitory concentration) were used and calculated as follows:
[formula] where MICPC and MICAC are the MICs of the peptide and antibiotic in combination, respectively, and MICP and MICA are the MICs of the peptide and antibiotic tested alone, respectively. FIC<0.5 were considered as synergy, 0.5≤FIC≤2 as addition effect, and FIC>2 as antagonism.

[8] = tested on: Candida dubliniensis ATCC MYA-646; test: microbe, parasite or virus in culture; type: cell-based; settings: RPMI broth microdilution, 35° C., 48 hours, visual
Method: (§3) All yeasts Candida albicans (Olomouc) and ATCC MYA-2876, Candida glabrata ATCC 2001 and DSY 565, Candida dubliniensis ATCC MYA-646, Candida krusei ATCC 6258 and Candida tropicalis ATCC 750 were sub-cultured from sterile vials onto Sabouraud dextrose agar, which was composed of 40 g dextrose (Penta, Czech Republic), 10 g peptone (OXOID, Great Britain) and 17 g agar (OXOID), dissolved in 1 l of distilled water, and cultivated for 24 hours at 35° C.
(§4) All strains were stored in a way that minimizes the possibility of mutation. Candida spp. were grown overnight in liquid YPD medium which is composed of 10 g yeast extract (DIFCO, USA), 20 g peptone (OXOID), and 20 g dextrose (Penta) dissolved in 1 l distilled water. Then the overnight culture was cryogenically preserved by suspending in 50% glycerol solution (1:1) in small vials and stored at −80° C.
(§5) The inoculum was prepared by picking five colonies from 24-hour-old cultures of Candida spp. The colonies were suspended in 1 ml of sterile saline solution and vortexed for 15 seconds. Optical density of the suspension was adjusted spectrophotometrically by adding sterile saline solution to produce optical density of 0.18 at 600 nm. A working suspension was made by a 1:50 dilution followed by a 1:20 dilution of the stock suspension with RPMI 1640 broth medium which was composed of L-glutamine without NaHCO3 (BioSera, France), and with 0.165 mol.l^−1 MOPS (Duchefa, Netherland)—further as RPMI broth medium.
(§6) The broth microdilution test was performed by using sterile, disposable, multi-well microdilution plates (96-well). The peptides in the concentrations 0.625-160 μmol.l^−1 were pipetted into the wells in 100 μl volumes. Each well of the plate was inoculated with 100 μl of the diluted inoculum suspension. Final yeast density in each well was 5×10^2 up to 2.5×10^3 CFU/ml. The microdilution plates were incubated without shaking at 35° C. and observed for the presence or absence of visible growth for 48 hours.
(§7) Drug-free medium without inoculation served as negative control; the growth positive control contained inoculated drug-free medium. Amphotericin B was used as control drug to ensure quality of Candida strains.
(§8) The minimal inhibition concentrations (MICs) were visually determined 48 hours after inoculation. The MIC values were defined as the lowest concentration in which no observable growth is noticeable.
(§9) All yeast isolates were obtained from the Institute of Physiology of the Academy of Sciences of the Czech Republic. Candida albicans (Olomouc) came from the Faculty of Medicine and Dentistry, Palacý University Olomouc.

Candida krusei ATCC 6258 = test: microbe, parasite or virus in culture; type: cell-based; settings: RPMI broth microdilution, 35° C., 48 hours, visual
Method: as §3, §4, §5, §6, §7, §8, §9

Candida glabrata DSY 565 = test: microbe, parasite or virus in culture; type: cell-based; settings: RPMI broth microdilution, 35° C., 48 hours, visual
Method: as §3, §4, §5, §6, §7, §8, §9

[9] = tested on: Candida tropicalis ATCC 750; test: microbe, parasite or virus in culture; type: cell-based; settings: RPMI broth microdilution, 35° C., 48 hours, visual
Method: as §3, §4, §5, §6, §7, §8, §9

[10] = tested on: Candida glabrata ATCC 2001; test: microbe, parasite or virus in culture; type: cell-based; settings: RPMI broth microdilution, 35° C., 48 hours, visual
Method: as §3, §4, §5, §6, §7, §8, §9

[11] = tested on: Candida albicans (Olomouc); test: microbe, parasite or virus in culture; type: cell-based; settings: RPMI broth microdilution, 35° C., 48 hours, visual
Method: as §3, §4, §5, §6, §7, §8, §9

[12] = tested on: Candida albicans ATCC MYA-2876; test: microbe, parasite or virus in culture; type: cell-based; settings: RPMI broth microdilution, 35° C., 48 hours, visual
Method: as §3, §4, §5, §6, §7, §8, §9

[13] = synthetically prepared hylanine, in words

Row | Compound | HC50 at 1 h (in vitro) [µM] | Antimicrobial activity MIC S. e. Motol [3] [µmol/L] | Antimicrobial activity MIC P. a. Liberec [1] [µmol/L] | Antimicrobial activity MIC S. a. Liberec [2] [µmol/L] | Antimicrobial activity MIC C. a. Olomouc (Candida albicans Olomouc) [µmol/L] | Antimicrobial activity MIC S. a. 6271 [4] [µmol/L] | Antimicrobial activity MIC M. l. (Micrococcus luteus) [µmol/L] | Antimicrobial activity MIC P. a. 5482 [5] [µmol/L] | Antimicrobial activity MIC E. f. Motol [6] [µmol/L] | Antimicrobial activity MIC B. s. (Bacillus subtilis) [µmol/L] | Antimicrobial activity MIC S. a. Motol [7] [µmol/L] | Antimicrobial activity MIC E. c. (Escherichia coli) [µmol/L] | FIC indexes (fractional inhibitory concentration) Combination with RIF against P. aeruginosa (P. aeruginosa (Liberec)) | Antifungal activity MIC C. dubliniensis ATCC MYA-646 [8] [µmol/L] | Antifungal activity MIC C. krusei ATCC 6258 (Candida krusei ATCC 6258) [µmol/L] | Antifungal activity MIC C. glabrata DSY 565 (Candida glabrata DSY 565) [µmol/L] | Antifungal activity MIC C. tropicalis ATCC 750 [9] [µmol/L] | Antifungal activity MIC C. glabrata ATCC 2001 [10] [µmol/L] | Antifungal activity MIC C. albicans Olomouc [11] [µmol/L] | Antifungal activity MIC C. albicans ATCC MYA-2876 [12] [µmol/L] | further results
1 | H-GIMSSLMKKLAAHIAK-NH2 [hylanine, reference compound] |  |  |  |  |  |  |  |  |  |  |  |  |  |  |  |  |  |  |  |  | activity against Pseudomonas aeruginosa ([1]; all strains, in words): weak; activity against Staphylococcus aureus ([2]; all strains of pathogenic Staphylococcus aureus, in words): weak; activity against the yeast Candida albicans (Candida albicans Olomouc; [13]): moderate activity; antimicrobial activity against Micrococcus luteus (Micrococcus luteus; [13]): high antimicrobial activity; antimicrobial activity against Bacillus subtilis (Bacillus subtilis; [13]): high antimicrobial activity
2 | H-GILSSLLKKWKKIIAK-NH2 [XVI] | > 400 | 2.7 | 7.1 | 8.8 | 10.5 | 20.0 | 2.0 | 5.0 | 100.0 | 1.6 | 20.3 | 7.5 | 0.417 | 40.0 | 10.0 | 231.1 | 1.0 | 40.0 | 18.0 | 26.0 | FIC indexes (fractional inhibitory concentration) Combination with TET against P. aeruginosa (P. aeruginosa (Liberec)): 0.583
3 | H-GIMSSLMKKLAAHIKK-NH2 [VIII] |  | 11.3 | 46.0 | 76.7 | 5.0 | 85.3 | 1.6 | 23.0 | >100 | 2.8 | 90.0 | 20.0 |  | 36.0 | 10.0 | 66.7 | 1.1 | 26.0 | 17.0 | 20.0 | 
4 | CN(C)[C@@H]1C(=O)C(C(N)=O)=C(O)[C@@]2(O)C(=O)C3=C(O)c4c(O)cccc4[C@@](C)(O)[C@H]3C[C@@H]12 [Tetracyklin, Tetracycline, reference compound] |  | >100 | 70.4 | 1.1 |  | 0.9 | 0.8 | 28.7 | 40.0 | 16.0 | 2.0 | 2.7 |  |  |  |  |  |  |  |  | 
5 | H-GILSSLWKKLKKWIAK-NH2 [XVII] | 57.2 | 1.6 | 24.1 | 1.6 | 12.7 | 2.5 |  | 12.7 | 10.0 | 1.3 | 2.0 | 2.5 | 0.292 | 5.0 | 3.3 | 11.0 | 0.8 | 5.5 | 4.5 | 5.5 | FIC indexes (fractional inhibitory concentration) Combination with TET against P. aeruginosa (P. aeruginosa (Liberec)): 0.417
